Reference: US9617258B2, “Pyrrolo[2,3-d]pyrimidinyl, pyrrolo[2,3-b]pyrazinyl and pyrrolo[2,3-d]pyridinyl acrylamides” (Pfizer Inc., priority 2013, dated 2017)
pIC50: −log10 of the molar value.

Columns and labels:
[1] = molecular target: T1, JAK3 enzyme (Homo sapiens (Human), UniProt P52333); assay: JAK Caliper enzyme assay at 1 mM ATP; type: biochemical
Method: (§1) JAK Caliper Enzyme Assay at 4 μM or 1 mM ATP
(§2) Test article was solubilized in dimethyl sulfoxide (DMSO) to a stock concentration of 30 mM. An 11-point half log dilution series was created in DMSO with a top concentration of 600 μM. […] The compound plates were diluted 1 to 60 resulting in a top final assay compound concentration of 10 μM and a 2% DMSO concentration.
(§3) Test article and assay controls were added to a 384-well plate. Reaction mixtures contained 20 mM HEPES, pH 7.4, 10 mM magnesium chloride, 0.01% bovine serum albumin (BSA), 0.0005% Tween 20, 4 μM or 1 mM ATP and 1 μM peptide substrate. […] The assays were initiated by the addition 1 nM JAK3 enzyme and were incubated at room temperature 75 minutes for JAK3. Enzyme concentrations and incubation times were optimized for each new enzyme preps and were modified slightly over time to ensure 20%-30% phosphorylation. The assays were stopped with a final concentration of 10 mM EDTA, 0.1% Coating Reagent and 100 mM HEPES, pH=7.4. The assay plates were placed on a Caliper Life Science Lab Chip 3000 (LC3000) instrument, and each well was sampled using appropriate separation conditions to measure the unphosphorylated and phosphorylated peptide.

[2] = molecular target: T1, JAK3 enzyme; assay: JAK Caliper enzyme assay at 4 μM ATP; type: biochemical
Method: as §1, §2, §3

[3] = Stability of JAK3 covalent inhibitors in human whole blood; type: in vitro ADME; conditions: both sexes, whole blood, 37° C., read-out: Human blood stability t1/2;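 further: parent compound remaining over incubation time quantified by LC-MS/MS as peak area ratio against an internal standard, using pooled K2-EDTA blood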
Description: Stability of JAK3 Covalent Inhibitors in Rat and Human Whole Blood
Rat blood was collected from 3 male Sprague-Dawley rats (200-250 g, Charles River Laboratories) and pooled for each study. Human blood was collected from one male and one female healthy subjects at the Occupational Health & Wellness Center at Pfizer, Groton, CT and pooled for each study. Both rat and human blood was collected freshly into K2-EDTA tubes and kept on ice. An aliquot of the blood was transferred to microtubes and pre-warmed for 10 min at 37° C. using a heat block. […] An aliquot of the incubation mixture was removed at designated time points during the course of the incubation, mixed with an aliquot of acetonitrile containing an internal standard, vortexed and centrifuged. The resulting supernatants were removed and subjected to LC-MS/MS analyses to determine parent compound concentrations. Peak area ratios of the parent compound vs the internal standard were used to determine the % of parent compound remaining vs incubation time.

T1 sequence (P52333 whole entry, species assumed): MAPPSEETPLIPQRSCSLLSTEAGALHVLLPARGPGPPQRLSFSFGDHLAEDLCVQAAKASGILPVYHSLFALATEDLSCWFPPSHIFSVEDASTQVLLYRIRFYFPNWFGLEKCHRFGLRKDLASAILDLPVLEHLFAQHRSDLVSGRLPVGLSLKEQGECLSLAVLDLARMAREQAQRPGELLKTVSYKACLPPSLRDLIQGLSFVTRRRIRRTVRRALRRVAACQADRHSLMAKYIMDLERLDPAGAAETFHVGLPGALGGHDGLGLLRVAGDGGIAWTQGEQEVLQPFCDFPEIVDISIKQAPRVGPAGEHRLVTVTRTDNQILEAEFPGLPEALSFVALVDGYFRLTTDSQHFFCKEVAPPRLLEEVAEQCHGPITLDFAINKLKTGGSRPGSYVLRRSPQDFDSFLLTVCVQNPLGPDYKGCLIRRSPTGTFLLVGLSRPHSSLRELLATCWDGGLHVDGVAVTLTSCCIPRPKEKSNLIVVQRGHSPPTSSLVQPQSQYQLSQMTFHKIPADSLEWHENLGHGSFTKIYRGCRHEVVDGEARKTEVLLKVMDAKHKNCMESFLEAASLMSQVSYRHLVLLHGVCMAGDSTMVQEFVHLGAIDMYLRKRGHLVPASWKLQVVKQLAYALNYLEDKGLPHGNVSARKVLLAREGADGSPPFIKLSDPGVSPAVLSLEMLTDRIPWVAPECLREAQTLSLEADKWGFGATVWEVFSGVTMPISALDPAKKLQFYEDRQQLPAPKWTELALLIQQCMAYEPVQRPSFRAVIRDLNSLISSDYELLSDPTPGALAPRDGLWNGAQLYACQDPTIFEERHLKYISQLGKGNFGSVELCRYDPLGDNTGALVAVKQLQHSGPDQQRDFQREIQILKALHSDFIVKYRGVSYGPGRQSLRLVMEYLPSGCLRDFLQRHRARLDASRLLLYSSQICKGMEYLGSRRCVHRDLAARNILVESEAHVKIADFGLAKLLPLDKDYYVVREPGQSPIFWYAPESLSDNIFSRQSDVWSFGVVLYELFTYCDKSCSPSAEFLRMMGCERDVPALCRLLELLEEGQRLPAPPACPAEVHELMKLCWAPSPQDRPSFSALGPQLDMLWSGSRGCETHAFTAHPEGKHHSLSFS

| SMILES | pIC50 ([1]; read-out: JAK3 (1 mM ATP) IC50) | half-life at 1 μM [3] [h] | further results |
| --- | --- | --- | --- |
| C=CC(=O)N1CC[C@H](O)[C@@H](Nc2ncnc3[nH]ccc23)C1 (racemic) [Example 113, rac-1-[(3S,4S)-4-Hydroxy-3-(7H-pyrrolo[2,3-d]pyrimidin-4-ylamino)piperidin-1-yl]prop-2-en-1-one] |  |  | pIC50 [1]: 5.07; pIC50 [2]: 7.37 |
| C/C=C/C(=O)N1CC[C@@H]2CCN(c3ncnc4[nH]ccc34)[C@@H]2C1 [Example 84, (2E)-1-[(3aS,7aS)-1-(7H-pyrrolo[2,3-d]pyrimidin-4-yl)octahydro-6H-pyrrolo[2,3-c]pyridin-6-yl]but-2-en-1-one] | < 5.00 |  | pIC50 ([2]; read-out: JAK3 (4 μM ATP) IC50): 6.14 |
| C=CC(=O)N1CCC(Nc2cnc3[nH]cc(C(=O)N[C@@H]4C[C@H]4C(F)(F)F)c3n2)CC1 [Example 233, 2-[(1-acryloylpiperidin-4-yl)amino]-N-[(1R,2R)-2-(trifluoromethyl)cyclopropyl]-5H-pyrrolo[2,3-b]pyrazine-7-carboxamide] | 7.69 |  | pIC50 ([2]; read-out: JAK3 (4 μM ATP) IC50): 9.70 |
| C=CC(=O)N1C[C@@H](Nc2ncnc3[nH]ccc23)[C@@H]2CC[C@H]1C2 [Example 126, 1-((1S,4S,5R)-4-(7H-pyrrolo[2,3-d]pyrimidin-4-ylamino)-2-azabicyclo[3.2.1]octan-2-yl)prop-2-en-1-one] |  |  | pIC50 [1]: < 5.00; pIC50 ([2]; read-out: JAK3 (4 μM ATP) IC50): 6.22 |
| C=CC(=O)c1c[nH]c2ncnc(N[C@H]3CN(C(=O)C=C)CC[C@H]3F)c12 [Example 120, 1-(4-{[(3S,4R)-1-Acryloyl-4-fluoropiperidin-3-yl]amino}-7H-pyrrolo[2,3-d]pyrimidin-5-yl)prop-2-en-1-one] | < 5.00 |  |  |
| C/C=C/C(=O)N1CC[C@@H](O)[C@@H](Nc2ncnc3[nH]ccc23)C1 (racemic) [Example 160, rac-(2E)-1-[(3S,4R)-4-Hydroxy-3-(7H-pyrrolo[2,3-d]pyrimidin-4-ylamino)piperidin-1-yl]but-2-en-1-one] |  |  | pIC50 [2]: < 5.00 |
| C=CC(=O)N1CC[C@@H](Nc2cnc3[nH]ccc3n2)C1 [Example 335, (R)-1-(3-((5H-Pyrrolo[2,3-b]pyrazin-2-yl)amino)pyrrolidin-1-yl)prop-2-en-1-one] | < 5.00 |  |  |
| C=CC(=O)N1C[C@H](Nc2ncnc3[nH]ccc23)[C@H]2CC[C@@H]1C2 [Example 127, 1-((1R,4R,5S)-4-(7H-pyrrolo[2,3-d]pyrimidin-4-ylamino)-2-azabicyclo[3.2.1]octan-2-yl)prop-2-en-1-one] | < 5.00 |  | pIC50 ([2]; read-out: JAK3 (4 μM ATP) IC50): 6.72 |
| C=CC(=O)N1CCC(Nc2cnc3[nH]cc(C(=O)NCC(C)C)c3n2)CC1 [Example 272, 2-[(1-acryloylpiperidin-4-yl)amino]-N-(2-methylpropyl)-5H-pyrrolo[2,3-b]pyrazine-7-carboxamide] |  | 3.62 |  |
| C=CC(=O)N1CC[C@@H]2CCN(c3nc(N)nc4[nH]ccc34)[C@@H]2C1 [Example 73, 1-[(3aS,7aS)-1-(2-Amino-7H-pyrrolo[2,3-d]pyrimidin-4-yl)octahydro-6H-pyrrolo[2,3-c]pyridin-6-yl]prop-2-en-1-one] |  | 3.25 |  |

Second part, led by results:

| pIC50 ([1]; read-out: JAK3 (1 mM ATP) IC50) | half-life at 1 μM [3] [h] | SMILES | further results |
| --- | --- | --- | --- |
|  | > 6 | C=CC(=O)N1C[C@H](O)C[C@@H](Nc2ncnc3[nH]ccc23)C1 [Example 60, 1-((3R,5R)-3-((7H-Pyrrolo[2,3-d]pyrimidin-4-yl)amino)-5-hydroxypiperidin-1-yl)prop-2-en-1-one] |  |
|  | 5.75 | C=CC(=O)N1CCC(Nc2cnc3[nH]cc(C(=O)N[C@@H](C)CC)c3n2)CC1 [Example 285, 2-[(1-acryloylpiperidin-4-yl)amino]-N-[(2S)-butan-2-yl]-5H-pyrrolo[2,3-b]pyrazine-7-carboxamide] |  |
|  | 5.78 | C=CC(=O)N1C[C@@H](C)C[C@@H](Nc2ncnc3[nH]ccc23)C1 (racemic) [Example 22, rac-cis-1-((3R,5S)-3-((7H-Pyrrolo[2,3-d]pyrimidin-4-yl)amino)-5-methylpiperidin-1-yl)prop-2-en-1-one] |  |
|  | 5.08 | C=CC(=O)N1C[C@H](Nc2ncnc3[nH]cc(CCOC)c23)CC[C@@H]1C [Example 13] |  |
